Values quoted from earlier work in patent US20050008656A1, “Compositions and methods for an orally administered inhibitor of biting insects” (priority 2003, published 2005).

Experiments:
[1] = in vivo
[2] = system: biting insects; conditions: ingested
[3] = in vivo; remark: listed apart in the source

Question: For `O=C(O)CCCC[C@@H]1SC[C@@H]2NC(=O)N[C@@H]21` [Biotin], which “toxicity (in words)” value [1] is on record?
Answer: Its value is “No toxic levels are known”.

Question: With `CCN(CC)C(=O)c1cccc(C)c1` [DEET, N, N-diethyl-3-methylbenzamide, reference compound] as the compound, how does the “toxicity (in words)” value [1] read?
Answer: Its value is “toxicity, including encephalopathy and seizures”.

Question: Which “dose above which flushing by dilating the blood vessels occurs” value [1] does the source give for `O=C(O)c1cccnc1` [Nicotinic acid] here?
Answer: Its value is greater than 200 mg.

Question: For `CC1CCC(C(C)(C)O)C(O)C1` (stereo not shown) [PMD, p-menthane-3,8-diol, reference compound], which eye irritation [1] is on record?
Answer: The eye irritation was “significant eye irritation”.

Question: For `C/C=C/C=C/C(=O)O` [Sorbic acid], which “toxicity (in words)” value [1] is on record?
Answer: The value was “non-toxic even when taken in large quantities”.

Question: Which “dosage above which neurological damage may be caused” value [1] does the source give for `Cc1ncc(CO)c(CO)c1O` [Vitamin B6, Pyridoxine] here?
Answer: The value was > 2,000 mg per day.

Question: For `C[N+](C)(C)CCO` [choline], which “maximum level set for safety” value [1] is on record?
Answer: Its value is 3.5 g/day.

Question: Which “toxicity (in words)” value [1] does the source give for `O[C@H]1[C@H](O)[C@@H](O)[C@H](O)[C@@H](O)[C@H]1O` [inositol] here?
Answer: The value was “No toxic effects known”.

Question: For `Cc1ncc(C[n+]2csc(CCO)c2C)c(N)n1` [thiamine], which “effectiveness at inhibiting insects from biting” value [2] is on record?
Answer: Its value is “not effective”.

Question: With Cyanocobalamin [B12] as the compound, how does the “time needed to be absorbed” value [3] read?
Answer: The value was roughly 3 h.
